Test results as given in PubChem BioAssay (NCI).
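Exposure lasted 48 hours, with cells grown in 96-well plates and compounds tested at five concentrations. TGI: total growth inhibition.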

Tests used:
Experiment in all cases: inhibition of tumour cell growth, NCI panel, 48 h
UO-31 renal = test system: UO-31 renal
HCC-2998 colon = test system: HCC-2998 colon
NCI-H460 lung = test system: NCI-H460 lung
UACC-62 melanoma = test system: UACC-62 melanoma
KM20L2 colon = test system: KM20L2 colon
M19-MEL melanoma = test system: M19-MEL melanoma
TK-10 renal = test system: TK-10 renal
SF-539 CNS = test system: SF-539 CNS
DMS 273 small cell lung = test system: DMS 273 small cell lung
SNB-78 CNS = test system: SNB-78 CNS
SNB-75 CNS = test system: SNB-75 CNS
CCRF-CEM leukemia = test system: CCRF-CEM leukemia
SF-295 CNS = test system: SF-295 CNS
DMS 114 small cell lung = test system: DMS 114 small cell lung
MOLT-4 leukemia = test system: MOLT-4 leukemia
OVCAR-8 ovarian = test system: OVCAR-8 ovarian
RXF 393 renal = test system: RXF 393 renal
LXFL 529 NSCLC = test system: LXFL 529 NSCLC
RPMI-8226 leukemia = test system: RPMI-8226 leukemia
K-562 leukemia = test system: K-562 leukemia
SR leukemia = test system: SR leukemia
SK-OV-3 ovarian = test system: SK-OV-3 ovarian
SF-268 CNS = test system: SF-268 CNS
XF 498 CNS = test system: XF 498 CNS
HOP-62 NSCLC = test system: HOP-62 NSCLC
KM12 colon = test system: KM12 colon
NCI-H23 lung = test system: NCI-H23 lung
UACC-257 melanoma = test system: UACC-257 melanoma
OVCAR-4 ovarian = test system: OVCAR-4 ovarian
SN12C renal = test system: SN12C renal
SK-MEL-2 melanoma = test system: SK-MEL-2 melanoma
SK-MEL-5 melanoma = test system: SK-MEL-5 melanoma
ACHN renal = test system: ACHN renal
HCT-15 colon = test system: HCT-15 colon
CAKI-1 renal = test system: CAKI-1 renal
HL-60(TB) leukemia = test system: HL-60(TB) leukemia
SW-620 colon = test system: SW-620 colon
EKVX NSCLC = test system: EKVX NSCLC
M14 melanoma = test system: M14 melanoma
COLO 205 colon = test system: COLO 205 colon
LOX IMVI melanoma = test system: LOX IMVI melanoma
HCT-116 colon = test system: HCT-116 colon
NCI-H522 lung = test system: NCI-H522 lung
NCI-H226 lung = test system: NCI-H226 lung
SK-MEL-28 melanoma = test system: SK-MEL-28 melanoma
A498 renal = test system: A498 renal
SNB-19 CNS = test system: SNB-19 CNS
U251 CNS = test system: U251 CNS
IGROV1 ovarian = test system: IGROV1 ovarian
OVCAR-5 ovarian = test system: OVCAR-5 ovarian
HOP-92 NSCLC = test system: HOP-92 NSCLC
HT29 colon = test system: HT29 colon
A549 NSCLC = test system: A549 NSCLC
DLD-1 colon = test system: DLD-1 colon
786-0 renal = test system: 786-0 renal
OVCAR-3 ovarian = test system: OVCAR-3 ovarian
MALME-3M melanoma = test system: MALME-3M melanoma

O=C(NC1C=Nc2ccc([N+](=O)[O-])cc2NC1=O)c1cc(Cl)cc([N+](=O)[O-])c1 (centres undefined)
TGI (UO-31 renal): > 100 µM
TGI (HCC-2998 colon): > 100 µM
TGI (NCI-H460 lung): > 100 µM
TGI (UACC-62 melanoma): > 100 µM
TGI (KM20L2 colon): > 100 µM
TGI (M19-MEL melanoma): > 100 µM
TGI (TK-10 renal): > 100 µM
TGI (SF-539 CNS): > 100 µM
TGI (DMS 273 small cell lung): > 100 µM
TGI (SNB-78 CNS): > 100 µM
TGI (SNB-75 CNS): > 100 µM
TGI (CCRF-CEM leukemia): > 100 µM
TGI (SF-295 CNS): > 100 µM
TGI (DMS 114 small cell lung): 84.2 µM
TGI (MOLT-4 leukemia): > 100 µM
TGI (OVCAR-8 ovarian): > 100 µM
TGI (RXF 393 renal): > 100 µM
TGI (LXFL 529 NSCLC): > 100 µM
TGI (RPMI-8226 leukemia): > 100 µM
TGI (K-562 leukemia): > 100 µM
TGI (SR leukemia): > 100 µM
TGI (SK-OV-3 ovarian): > 100 µM
TGI (SF-268 CNS): > 100 µM
TGI (XF 498 CNS): > 100 µM
TGI (HOP-62 NSCLC): > 100 µM
TGI (KM12 colon): > 100 µM
TGI (NCI-H23 lung): > 100 µM
TGI (UACC-257 melanoma): > 100 µM
TGI (OVCAR-4 ovarian): > 100 µM
TGI (SN12C renal): > 100 µM
TGI (SK-MEL-2 melanoma): > 100 µM
TGI (SK-MEL-5 melanoma): > 100 µM
TGI (ACHN renal): > 100 µM
TGI (HCT-15 colon): > 100 µM
TGI (CAKI-1 renal): > 100 µM
TGI (HL-60(TB) leukemia): > 100 µM
TGI (SW-620 colon): > 100 µM
TGI (EKVX NSCLC): > 100 µM
TGI (M14 melanoma): > 100 µM
TGI (COLO 205 colon): > 100 µM
TGI (LOX IMVI melanoma): > 100 µM
TGI (HCT-116 colon): > 100 µM
TGI (NCI-H522 lung): 67.8 µM
TGI (NCI-H226 lung): > 100 µM
TGI (SK-MEL-28 melanoma): > 100 µM
TGI (A498 renal): > 100 µM
TGI (SNB-19 CNS): > 100 µM
TGI (U251 CNS): > 100 µM
TGI (IGROV1 ovarian): > 100 µM
TGI (OVCAR-5 ovarian): > 100 µM
TGI (HOP-92 NSCLC): > 100 µM
TGI (HT29 colon): > 100 µM
TGI (A549 NSCLC): > 100 µM
TGI (DLD-1 colon): > 100 µM

CSc1sc(=S)sc1C(=O)N(C)c1ccccc1
TGI (UO-31 renal): > 100 µM
TGI (NCI-H460 lung): > 100 µM
TGI (UACC-62 melanoma): > 100 µM
TGI (KM20L2 colon): > 100 µM
TGI (M19-MEL melanoma): > 100 µM
TGI (TK-10 renal): > 100 µM
TGI (SF-539 CNS): > 100 µM
TGI (DMS 273 small cell lung): > 100 µM
TGI (786-0 renal): > 100 µM
TGI (SNB-78 CNS): > 100 µM
TGI (SNB-75 CNS): 82.5 µM
TGI (CCRF-CEM leukemia): > 100 µM
TGI (SF-295 CNS): > 100 µM
TGI (DMS 114 small cell lung): > 100 µM
TGI (MOLT-4 leukemia): > 100 µM
TGI (OVCAR-8 ovarian): > 100 µM
TGI (RXF 393 renal): > 100 µM
TGI (LXFL 529 NSCLC): > 100 µM
TGI (RPMI-8226 leukemia): > 100 µM
TGI (K-562 leukemia): > 100 µM
TGI (SR leukemia): > 100 µM
TGI (SF-268 CNS): > 100 µM
TGI (XF 498 CNS): > 100 µM
TGI (HOP-62 NSCLC): > 100 µM
TGI (KM12 colon): > 100 µM
TGI (NCI-H23 lung): > 100 µM
TGI (OVCAR-4 ovarian): > 100 µM
TGI (SN12C renal): > 100 µM
TGI (SK-MEL-2 melanoma): > 100 µM
TGI (SK-MEL-5 melanoma): > 100 µM
TGI (ACHN renal): > 100 µM
TGI (HCT-15 colon): > 100 µM
TGI (HL-60(TB) leukemia): > 100 µM
TGI (SW-620 colon): > 100 µM
TGI (EKVX NSCLC): > 100 µM
TGI (OVCAR-3 ovarian): > 100 µM
TGI (M14 melanoma): > 100 µM
TGI (COLO 205 colon): > 100 µM
TGI (LOX IMVI melanoma): > 100 µM
TGI (HCT-116 colon): > 100 µM
TGI (NCI-H522 lung): > 100 µM
TGI (NCI-H226 lung): > 100 µM
TGI (SK-MEL-28 melanoma): > 100 µM
TGI (SNB-19 CNS): > 100 µM
TGI (U251 CNS): > 100 µM
TGI (MALME-3M melanoma): > 100 µM
TGI (IGROV1 ovarian): > 100 µM
TGI (OVCAR-5 ovarian): > 100 µM
TGI (HT29 colon): > 100 µM
TGI (A549 NSCLC): > 100 µM
